Laboratory results from patent US20260234157A1, “COMPOUND AND METHOD FOR TARGETED DEGRADATION OF ANDROGEN RECEPTOR” (Gan & Lee Pharmaceuticals Co., Ltd., priority 2023, published 2026).
Substitutions are numbered along the chain they refer to.

Tests used:
Format in all cases: cell-based
LNCaP FGC cells = experiment: Inhibition of proliferation of LNCaP cells (WST-8); conditions: Homo sapiens, LNCaP, 96 h, LNCaP FGC cells, 96 hours, WST-8 absorbance at 450 nm; read-out: IC50 for inhibiting the proliferation of LNCaP cells
Protocol: The cells were cultured in a cell culture incubator with 5% CO2 at 37° C. overnight. […] On the sixth day, 96 well plates were taken out, and 20 μL of WST-8 (Beytime, C0040) reagent was added to each well.

AR protein [1] = target: T1, AR protein (Homo sapiens, UniProt P10275); experiment: Degradation of AR protein in VCaP cells (Western blot); conditions: 8 hours; for inhibition at 0.01 µM: compound at 10 nM, read-out: Degradation rate of the AR protein in VCaP cells, 10 nM (%); for inhibition at 0.1 µM: compound at 100 nM, read-out: Degradation rate of the AR protein in VCaP cells, 100 nM (%)
T1 construct: degradation activity of the compounds disclosed in the present disclosure on AR protein in VCaP cells; host or cells: VCaP
T1 sequence (P10275 1-920): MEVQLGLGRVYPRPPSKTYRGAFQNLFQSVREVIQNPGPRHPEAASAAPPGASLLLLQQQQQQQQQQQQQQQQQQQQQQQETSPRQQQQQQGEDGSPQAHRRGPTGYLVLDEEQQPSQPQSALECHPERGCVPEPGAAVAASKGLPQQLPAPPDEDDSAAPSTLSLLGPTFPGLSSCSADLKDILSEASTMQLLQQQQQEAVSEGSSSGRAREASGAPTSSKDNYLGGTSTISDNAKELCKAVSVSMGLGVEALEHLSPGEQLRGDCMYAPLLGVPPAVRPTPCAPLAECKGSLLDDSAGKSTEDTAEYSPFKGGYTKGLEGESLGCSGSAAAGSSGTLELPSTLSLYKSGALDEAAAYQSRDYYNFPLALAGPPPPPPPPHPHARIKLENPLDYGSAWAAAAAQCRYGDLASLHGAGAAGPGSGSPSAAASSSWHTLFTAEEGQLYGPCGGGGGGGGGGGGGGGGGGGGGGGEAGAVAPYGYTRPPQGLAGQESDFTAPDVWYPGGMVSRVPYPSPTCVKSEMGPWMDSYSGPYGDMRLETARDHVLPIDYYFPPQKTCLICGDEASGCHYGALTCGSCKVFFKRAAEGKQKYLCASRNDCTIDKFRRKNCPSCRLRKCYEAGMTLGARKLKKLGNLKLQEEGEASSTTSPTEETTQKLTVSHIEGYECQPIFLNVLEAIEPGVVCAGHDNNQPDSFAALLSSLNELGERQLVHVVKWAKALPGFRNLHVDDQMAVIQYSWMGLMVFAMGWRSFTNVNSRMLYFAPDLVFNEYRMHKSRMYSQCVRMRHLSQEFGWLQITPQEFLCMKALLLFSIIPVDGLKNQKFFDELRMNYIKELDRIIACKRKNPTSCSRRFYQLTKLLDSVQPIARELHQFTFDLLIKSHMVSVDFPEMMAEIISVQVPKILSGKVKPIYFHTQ
In short: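 Western blot readout: AR band grayscale normalised to GAPDH, used to derive degradation rate. Lysates came from VCaP cells exposed to compound for 8 h, with solvent controls run in parallel.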

VCaP cells = experiment: Inhibition of proliferation of VCaP cells (WST-8); conditions: Homo sapiens; VCaP cells, 168 hours, WST-8 absorbance at 450 nm; read-out: IC50 for inhibiting the proliferation of VCaP cells
In short: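 Proliferation was read by WST-8 on day nine. Cells were VCaP FGC, seeded at 15000 cells per well in 10% FBS DMEM and kept at 37° C with 5% CO2.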

AR protein [2] = target: T2, AR protein (Homo sapiens, UniProt P10275, T878A); experiment: Degradation of AR protein in LNCaP cells (Western blot); conditions: LNCaP cells, 8 hours, Western blot grayscale, GAPDH internal reference; for inhibition at 0.01 µM: compound 10 nM, read-out: Degradation rates of the AR protein in LNCaP cells, 10 nM (%); for inhibition at 0.1 µM: compound 100 nM, read-out: Degradation rates of the AR protein in LNCaP cells, 100 nM (%)
T2 construct: degradation activity of the compounds disclosed in the present disclosure on AR protein in LNCaP cells; host or cells: LNCaP FGC
T2 sequence (P10275 1-920 T878A): T1 sequence (P10275 1-920) with T878A
In short: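 Percent AR degradation was derived from GAPDH-normalised Western blot band intensities (infrared detection) in LNCaP lysates.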

| SMILES | IC50 (LNCaP FGC cells) | inhibition at 0.01 µM (AR protein [1]) | inhibition at 0.1 µM (AR protein [1]) | IC50 (VCaP cells) | inhibition at 0.01 µM (AR protein [2]) | inhibition at 0.1 µM (AR protein [2]) |
| --- | --- | --- | --- | --- | --- | --- |
| CCOC1(CN2CCC3(CC2)COc2c3ccc3c2C(=O)N(C2CCC(=O)NC2=O)C3=O)CCN(c2ccc(C(=O)N[C@H]3CC[C@H](Oc4ccc(C#N)c(Cl)c4)CC3)nn2)CC1 (stereo partly drawn) [Compound 244] | 170 nM | 3% | 56% | 68 nM | -5% | 65% |
| N#Cc1ccc(O[C@H]2CC[C@H](NC(=O)c3ccc(N4CCC5(CC4)CC(C(=O)N4CCC6(CC4)COc4c6ccc6c4CN(C4CCC(=O)NC4=O)C6=O)C5)nn3)CC2)cc1Cl (stereo partly drawn) [Compound 254] | 49100 nM | 56% | 85% | 2.5 nM | 53% | 45% |
| N#Cc1ccc(O[C@H]2CC[C@H](NC(=O)c3ccc(N4CCC5(CCC(N6CCC7(CCc8cc9c(cc8O7)C(=O)N(C7CCC(=O)NC7=O)C9=O)CC6)CC5)C4)nn3)CC2)cc1Cl (stereo partly drawn) [Compound 34] | 1120 nM | 39% | 51% | 4200 nM | 57% | 70% |
| COc1cc(O[C@H]2C(C)(C)[C@H](NC(=O)c3ccc(N4CCC(C#N)(CN5CCC6(CC5)COc5c6ccc6c5C(=O)N(C5CCC(=O)NC5=O)C6=O)CC4)cc3)C2(C)C)ccc1C#N (stereo partly drawn) [Compound 207] | 870 nM | -46% | 37% | 38 nM | 28% | 40% |
| CC1(CN2CC3(CCc4cc5c(cc4O3)C(=O)N(C3CCC(=O)NC3=O)C5=O)C2)CCN(c2ccc(C(=O)N[C@H]3CC[C@H](Oc4ccc(C#N)c(Cl)c4)CC3)nn2)CC1 (stereo partly drawn) [Compound 2] | 1250 nM | 21% | 56% | 3910 nM | 66% | 50% |
| COc1cc(O[C@H]2C(C)(C)[C@H](NC(=O)c3ccc(N4CCC(C)(CN5CC6(CCc7cc8c(cc7O6)C(=O)N(C6CCC(=O)NC6=O)C8)C5)CC4)cc3)C2(C)C)ccc1C#N (stereo partly drawn) [Compound 265] | 44400 nM | 34% | 78% | 1.5 nM | 66% | 61% |
| N#Cc1ccc(O[C@H]2CC[C@H](NC(=O)c3ccc(N4CC5(CC(C(=O)N6CCC7(CC6)COc6c7ccc7c6CN(C6CCC(=O)NC6=O)C7=O)C5)C4)nn3)CC2)cc1Cl (stereo partly drawn) [Compound 256] | 56000 nM | 48% | 81% | 7.5 nM | 47% | 36% |
| N#Cc1ccc(O[C@H]2CC[C@H](NC(=O)c3ccc(N4CCC(O)(CN5CCC6(CC5)COc5c6ccc6c5C(=O)N(C5CCC(=O)NC5=O)C6=O)CC4)nn3)CC2)cc1Cl (stereo partly drawn) [Compound 213] | 1320 nM | 32% | 75% | 19 nM | 47% | 67% |
| COc1cc(O[C@H]2C(C)(C)[C@H](NC(=O)c3ccc(N4CCC(C)(CN5CC6(CCc7ccc8c(c7O6)C(=O)N(C6CCC(=O)NC6=O)C8=O)C5)CC4)cc3)C2(C)C)ccc1C#N (stereo partly drawn) [Compound 290] | 60900 nM | -2% | 6% | 9420 nM | -14% | 18% |
| N#Cc1ccc(O[C@H]2CC[C@H](NC(=O)c3ccc(N4CCC(CN5CCC6(CCc7cc8c(cc7O6)C(=O)N(C6CCC(=O)NC6=O)C8)CC5)CC4)nn3)CC2)cc1Cl (stereo partly drawn) [Compound 44] | 1140 nM | 79% | 83% | 2.5 nM | 85% | 84% |
| COc1cc(O[C@H]2C(C)(C)[C@H](NC(=O)c3ccc(N4CCC(CN5CC6(CCc7cc8c(cc7O6)C(=O)N(C6CCC(=O)NC6=O)C8=O)C5)CC4)cc3)C2(C)C)ccc1C#N (stereo partly drawn) [Compound 277] | 10700 nM | 7% | 54% | 73 nM | 16% | 60% |
| CCC1(CN2CCC3(CC2)COc2c3ccc3c2CN(C2CCC(=O)NC2=O)C3=O)CCN(c2ccc(C(=O)N[C@H]3CC[C@H](Oc4ccc(C#N)c(Cl)c4)CC3)nn2)CC1 (stereo partly drawn) [Compound 236] | 22 nM | 37% | 82% | 1 nM | 44% | 60% |
| COc1cc(O[C@H]2CC[C@H](NC(=O)c3ccc(N4CCC(F)(CN5CC6(CCc7cc8c(cc7O6)CN(C6CCC(=O)NC6=O)C8=O)C5)CC4)nn3)CC2)ccc1C#N (stereo partly drawn) [Compound 209] | 1760 nM | 39% | 67% | 2 nM | 49% | 25% |
| COc1cc(O[C@H]2C(C)(C)[C@H](NC(=O)c3ccc(N4CCC(CN5CCC6(CC5)COc5c6ccc6c5C(=O)N(C5CCC(=O)NC5=O)C6=O)CC4)cc3)C2(C)C)ccc1C#N (stereo partly drawn) [Compound 234] | 270 nM | 35% | 72% | 36 nM | 58% | 81% |
| N#Cc1ccc(O[C@H]2CC[C@H](NC(=O)c3ccc(N4CCC(F)(CN5CCC6(CC5)COc5cc7c(cc5C6)C(=O)N(C5CCC(=O)NC5=O)C7=O)CC4)nn3)CC2)cc1Cl (stereo partly drawn) [Compound 67] | 15 nM | 43% | 72% | 190 nM | 37% | 60% |
